Measured values from article PMC4549706, “Rational Design of Highly Potent and Slow-Binding Cytochrome bc1 Inhibitor as Fungicide by Computational Substitution Optimization” (Scientific Reports, 2015).
Like-named read-outs stand apart in the source and are kept apart here.

Key:
S. fuliginea = experiment: Field trial, summer squash naturally infected, powdery mildew; assay type: in vivo, Sphaerotheca fuliginea
Procedure: To further study the potential of compound 18 against powdery mildew and downy mildew, field experiments were conducted during the growing season of summer squash and cucumber. The summer squash plants at a fruiting stage naturally infected by S. fuliginea were used. […] Almost no lesions were observed on the leaves of summer squash. […] Lesions on the leaves of control plants, however, expanded quickly, and intense fungal hyphae could be observed. The curative effect is approximately 64.85% for the AZ-treated (93.75 g.ai/ha) summer squash. In addition, field trials for the treatment of downy mildew of cucumber were also performed. Cucumber plants naturally infected by P. cubensis were used for the study. Fungi on the leaves of control plants expanded quickly and lesions could be observed.
In the field trials, summer squash plants which is naturally infected by S. fuliginea and cucumber plants which is naturally infected by P. cubensis were used.
The disease index and control effect of compound 18 were calculated via the following […]
Disease index (%) = ∑(Ni × i)/(N × 9) × 100 […]
Each treatment took up in four plots and was distributed randomly in each […]eld. The relative control effects were assessed after the 7th day of foliar application 18. […]

[1] = tested on: Sphaerotheca fuliginea (Schlecht.) Poll.; experiment: In vivo fungus growth inhibitory rate at 200 mg/L, powdery mildew
Excerpt: Based on the above in vitro study, compounds with nanomolar and subnanomolar Ki values were selected from the total 21 newly synthezised compounds for further studies. Pesticide likeness, defined as a complex balance of various physicochemical properties and structure features, can evaluate whether a molecule is similar to the known pesticides. After the filtration of pesticide likeness, seven compounds were kept to adhere to our previously defined rules for pesticide-likeness including molecular weight (MW) ≤ 435 Da, ClogP ≤ 6, number of H-bond acceptors (HBA) ≤ 6, number of H-bond donors (HBD) ≤ 2, number of rotatable bonds (ROB) ≤ 9, and number of aromatic bonds (ARB) ≤ 17 (Table 1)[24]. […] Therefore, compound 18 was recognized as lead compound for subsequent studies.
[a] Compounds are named as “series number-site number plus substitution group number” a: -F, b: -Cl, c:
-Br, d: -NO2, e: -CH3, f: -CF3, g: -OCH3, h: -OH, i: -NH2, j: -COOH.
[b] Substitution number and group.
[c] CH is “series 1” and N is “series 2”. […]
Table S2 Fungus growth inhibitory rate of target compounds (200 mg/L).
Comp. No. R X Sphaerotheca fuliginea Pseudoperonospora cubensis

[2] = target: T1, porcine succinate-cytochrome c reductase (SCR, the mixture of complex II and bc1) (Sus scrofa, UniProt P24964); settings: previous data, cited from earlier work
T1 construct: T h e S C R f r o m p o r c i n e h e a r t; from tissue; host or cells: porcine heart
T1 sequence (P24964 whole entry, one chain of several): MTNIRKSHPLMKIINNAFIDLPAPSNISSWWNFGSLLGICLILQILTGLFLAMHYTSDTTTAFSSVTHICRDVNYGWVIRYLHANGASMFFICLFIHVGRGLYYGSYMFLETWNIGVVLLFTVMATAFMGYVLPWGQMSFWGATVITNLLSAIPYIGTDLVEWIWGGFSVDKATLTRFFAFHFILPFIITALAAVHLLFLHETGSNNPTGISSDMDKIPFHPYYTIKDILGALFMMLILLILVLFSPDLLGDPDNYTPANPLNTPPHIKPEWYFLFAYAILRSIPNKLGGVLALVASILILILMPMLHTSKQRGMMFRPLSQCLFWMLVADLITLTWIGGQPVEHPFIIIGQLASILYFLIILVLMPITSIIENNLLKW

In the case of `COC=C(C(=O)OC)c1ccccc1CSc1nc2cc(OC)ccc2s1` [Compound 18], the “curative effect, powdery mildew (S. fuliginea)” value (S. fuliginea; 37.5 g.ai/ha, 7th day) is reported as “approximately 70.92%”, the “curative effect, powdery mildew (S. fuliginea)” value (S. fuliginea; 75 g.ai/ha, 7th day after foliar application) is reported as 74.60% and the “Fungus growth inhibitory rate, Sphaerotheca fuliginea” value [1] is reported as “completely inhibited”. For the same compound, the “Fungus growth inhibitory rate, Sphaerotheca fuliginea” value ([1]; listed as Comp. 18) was 100%.

In the case of `CO/C=C(/C(=O)OC)c1ccccc1Oc1cc(Oc2ccccc2C#N)ncn1` [AZ, Azoxystrobin, reference compound], the Ki ([2]; inhibition of SCR activity) is given as 298 nM and the “inhibition type with respect to cytochrome c” value [2] is given as “non-competitive”.
